Data published in patent publication US20240252527A9, “NUCLEOSIDE DRUGS FOR THE TREATMENT OR PREVENTION OF CORONAVIRUS INFECTION AND THEIR USES” (Miracure Biotechnology Limited, priority 2022, published 2024).
Like-named read-outs stand apart in the source and are kept apart here.

What was measured:
229E = 229E MRC5 CPE assay (cytopathic experiment); format: cell-based, coronavirus 229E (HCoV-229E)
Procedure: (§1) Cells were seeded into microplates at a certain density and cultured overnight in a incubator at 5% CO2, 37° C. The next day, double-diluted compound and virus were added. It was set up a cell control group (cells without treatment with a compound or virus infection), a virus control group (cells infected with virus, no compound treatment) and a culture medium control group (medium only). Cells were cultured in the incubator for 3 days (229E) or 7 days (OC43). Cytotoxicity experiments were performed under the same conditions as antiviral experiments, but without virus infection. Cell viability was tested using a cell viability assay kit Cell Titer Glo (Promega).
(§2) The antiviral activity and cytotoxicity of the compounds were expressed by the inhibition rate (%) and cell viability (%) of the compounds against virus-induced cytopathic effects at different concentrations, respectively. Nonlinear fitting analysis on the inhibition rate and cell viability of the compounds were carried out with the GraphPad Prism, and the half effective concentration (EC50), the […] effective concentration (EC90), the half cytotoxic concentration (CC50) and the 90% cytotoxic concentration of the compound […] values were calculated.

OC43 = OC43 Huh7 CPE assay (cytopathic experiment); format: cell-based, coronavirus OC43 (HCoV-OC43); settings: for EC50: read-out: OC43 Huh7 CPE assay (μM) EC50; for EC90: read-out: OC43 Huh7 CPE assay (μM) EC90
Procedure: as §1, §2

[1] = Human coronavirus 229E, MRC5, 72 h, read-out: 229E MRC5 CPE assay (μM) EC50
[2] = Human coronavirus 229E, MRC5, 72 h, read-out: 229E MRC5 CPE assay (μM) EC90
[3] = Betacoronavirus 1, OC43, Huh-7, 168 h
[4] = Human coronavirus 229E, MRC5, 72 h; read-out: 229E MRC5 CPE assay (μM) EC50
[5] = Human coronavirus 229E, MRC5, 72 h; read-out: 229E MRC5 CPE assay (μM) EC90
[6] = Betacoronavirus 1, Huh-7, 168 h, Huh7 cells, OC43 virus, 7 days, Cell Titer Glo

| Structure (SMILES) | EC50 (229E; [1]) | EC90 (229E; [2]) | EC50 (OC43; [3]) | EC90 (OC43; [3]) | EC50 (229E; [4]) | EC90 (229E; [5]) | EC50 (OC43; [6]) | EC90 (OC43; [6]) |
| --- | --- | --- | --- | --- | --- | --- | --- | --- |
| CCC(CC)COC(=O)[C@H](C)N[P@@](=O)(OCOC(=O)C(C)(C)C)OC[C@H]1O[C@@](C#N)(c2ccc3c(N)ncnn23)[C@H](O)[C@@H]1O [Compound 192] | 0.1 to 0.5 µM | > 0.5 µM | 0.1 to 0.5 µM | > 0.5 µM |  |  |  |  |
| CCC(CC)COC(=O)[C@H](C)NP(=O)(OCOC(=O)C(C)(C)C)OC[C@H]1O[C@@](C#N)(c2ccc3c(N)ncnn23)[C@H](O)[C@@H]1O (stereo partly shown) [Compound 193] | 0.1 to 0.5 µM | > 0.5 µM | 0.1 to 0.5 µM | > 0.5 µM |  |  |  |  |
| CC(C)OC(=O)C(C)(C)N[P@](=O)(OCOC(=O)C(C)(C)C)OC[C@H]1O[C@@](C#N)(c2ccc3c(N)ncnn23)[C@H](O)[C@@H]1O [Compound 194] | 0.1 to 0.5 µM | > 0.5 µM | 0.1 to 0.5 µM | > 0.5 µM |  |  |  |  |
| CC(C)OC(=O)C(C)(C)NP(=O)(OCOC(=O)C(C)(C)C)OC[C@H]1O[C@@](C#N)(c2ccc3c(N)ncnn23)[C@H](O)[C@@H]1O (stereo partly shown) [Compound 195] | 0.1 to 0.5 µM | > 0.5 µM | 0.1 to 0.5 µM | > 0.5 µM |  |  |  |  |
| CC(C)(C)C(=O)OCOP(=O)(OCOC(=O)C(C)(C)C)OC[C@H]1O[C@@](C#N)(c2ccc3c(N)ncnn23)[C@H](O)[C@@H]1O [Compound 196] | 0.1 to 0.5 µM | > 0.5 µM | 0.1 to 0.5 µM | > 0.5 µM |  |  |  |  |
| CC(C)(C)C(=O)OCO[P@@]1(=O)OCC2O[C@@](C#N)(c3ccc4c(N)ncnn34)[C@H](O)[C@@H]2O1 (stereo partly shown) [Compound 197] | 0.1 to 0.5 µM | > 0.5 µM | > 0.5 µM | > 0.5 µM |  |  |  |  |
| CC(C)(C)C(=O)OCO[P@]1(=O)OCC2O[C@@](C#N)(c3ccc4c(N)ncnn34)[C@H](O)[C@@H]2O1 (stereo partly shown) [Compound 198] | 0.1 to 0.5 µM | > 0.5 µM | > 0.5 µM | > 0.5 µM |  |  |  |  |
| CC(C)(C)C(=O)O[C@@H]1[C@@H]2O[P@@](=O)(O)OC[C@H]2O[C@@]1(C#N)c1ccc2c(N)ncnn12 [Compound 199] | > 0.5 µM | > 0.5 µM | > 0.5 µM | > 0.5 µM |  |  |  |  |
| CC(C)(C)C(=O)O[C@@H]1[C@@H]2O[P@](=O)(O)OC[C@H]2O[C@@]1(C#N)c1ccc2c(N)ncnn12 [Compound 200] | > 0.5 µM | > 0.5 µM | > 0.5 µM | > 0.5 µM |  |  |  |  |
| [2H]c1cc([C@]2(C#N)O[C@@H]3CO[P@](=O)(O)O[C@H]3[C@H]2OC(=O)C(CCC)CCC)n2ncnc(N)c12 [Compound 208] | > 0.5 µM | > 0.5 µM | 0.1 to 0.5 µM | 0.1 to 0.5 µM |  |  |  |  |
| [2H]c1cc([C@]2(C#N)O[C@@H]3CO[P@@](=O)(O)O[C@H]3[C@H]2OC(=O)C(CCC)CCC)n2ncnc(N)c12 [Compound 209] | > 0.5 µM | > 0.5 µM | > 0.5 µM | 0.1 to 0.5 µM |  |  |  |  |
| [2H]c1cc([C@]2(C#N)O[C@@H]3CO[P@](=O)(OCOC(=O)C(CCC)CCC)O[C@H]3[C@H]2O)n2ncnc(N)c12 [Compound 210] | < 0.1 µM | < 0.1 µM | < 0.1 µM | 0.1 to 0.5 µM |  |  |  |  |
| [2H]c1cc([C@]2(C#N)O[C@@H]3CO[P@@](=O)(OCOC(=O)C(CCC)CCC)O[C@H]3[C@H]2O)n2ncnc(N)c12 [Compound 211] | < 0.1 µM | < 0.1 µM | 0.1 to 0.5 µM | > 0.5 µM |  |  |  |  |
| [2H]c1cc([C@]2(C#N)O[C@H](COP(=O)(OCOC(=O)C(CCC)CCC)OCOC(=O)C(CCC)CCC)[C@@H](O)[C@H]2O)n2ncnc(N)c12 [Compound 212] | 0.1 to 0.5 µM | > 0.5 µM | 0.1 to 0.5 µM | > 0.5 µM |  |  |  |  |
| CC(C)(C)C(=O)OCO[P@@](=O)(OC[C@H]1O[C@@](C#N)(c2ccc3c(N)ncnn23)[C@H](O)[C@@H]1O)Oc1ccccc1 [Compound 214] |  |  | > 0.5 µM | > 0.5 µM | > 0.5 µM | > 0.5 µM |  |  |
| CC(C)(C)C(=O)OCO[P@](=O)(OC[C@H]1O[C@@](C#N)(c2ccc3c(N)ncnn23)[C@H](O)[C@@H]1O)Oc1ccccc1 [Compound 215] |  |  | > 0.5 µM | > 0.5 µM | > 0.5 µM | > 0.5 µM |  |  |
| CC(C)(C)C(=O)OCO[P@@](=O)(OC[C@H]1O[C@@](C#N)(c2ccc3c(N)ncnn23)[C@H](O)[C@@H]1O)Oc1cccc2ccccc12 [Compound 216] |  |  | > 0.5 µM | > 0.5 µM | > 0.5 µM | > 0.5 µM |  |  |
| CC(C)(C)C(=O)OCO[P@](=O)(OC[C@H]1O[C@@](C#N)(c2ccc3c(N)ncnn23)[C@H](O)[C@@H]1O)Oc1cccc2ccccc12 [Compound 217] |  |  | > 0.5 µM | > 0.5 µM | > 0.5 µM | > 0.5 µM |  |  |
| CCC(CC)COC(=O)[C@H](C)N[P@@](=O)(OC[C@H]1O[C@@](C#N)(c2ccc3c(N)ncnn23)[C@H](O)[C@@H]1O)Oc1ccc(C[C@H](NC(=O)OCc2ccccc2)C(=O)OC2CCCC2)cc1 [Compound 218] |  |  |  |  | > 0.5 µM | > 0.5 µM | > 0.5 µM | > 0.5 µM |
| CCC(CC)COC(=O)[C@H](C)N[P@](=O)(OC[C@H]1O[C@@](C#N)(c2ccc3c(N)ncnn23)[C@H](O)[C@@H]1O)Oc1ccc(C[C@H](NC(=O)OCc2ccccc2)C(=O)OC2CCCC2)cc1 [Compound 219] |  |  |  |  | > 0.5 µM | > 0.5 µM | > 0.5 µM | > 0.5 µM |
| N#C[C@@]1(c2ccc3c(N)ncnn23)O[C@@H]2CO[P@@](=O)(Oc3ccccc3)O[C@H]2[C@H]1O [Compound 220] |  |  | > 0.5 µM | > 0.5 µM | > 0.5 µM | > 0.5 µM |  |  |
| N#C[C@@]1(c2ccc3c(N)ncnn23)O[C@@H]2CO[P@](=O)(Oc3ccccc3)O[C@H]2[C@H]1O [Compound 221] |  |  | > 0.5 µM | > 0.5 µM | > 0.5 µM | > 0.5 µM |  |  |
| CCCC(CCC)C(=O)OCO[P@@](=O)(OC[C@H]1O[C@@](C#N)(c2ccc3c(N)ncnn23)[C@H](O)[C@@H]1O)Oc1ccccc1 [Compound 222] |  |  | > 0.5 µM | > 0.5 µM | 0.1 to 0.5 µM | > 0.5 µM |  |  |
| CCCC(CCC)C(=O)OCO[P@](=O)(OC[C@H]1O[C@@](C#N)(c2ccc3c(N)ncnn23)[C@H](O)[C@@H]1O)Oc1ccccc1 [Compound 223] |  |  | > 0.5 µM | > 0.5 µM | 0.1 to 0.5 µM | > 0.5 µM |  |  |
| CCCC(CCC)C(=O)OCO[P@@](=O)(OC[C@H]1O[C@@](C#N)(c2ccc3c(N)ncnn23)[C@H](O)[C@@H]1O)Oc1cccc2ccccc12 [Compound 224] |  |  | > 0.5 µM | > 0.5 µM | > 0.5 µM | > 0.5 µM |  |  |
| CCCC(CCC)C(=O)OCO[P@](=O)(OC[C@H]1O[C@@](C#N)(c2ccc3c(N)ncnn23)[C@H](O)[C@@H]1O)Oc1cccc2ccccc12 [Compound 225] |  |  | > 0.5 µM | > 0.5 µM | > 0.5 µM | > 0.5 µM |  |  |
| CCCC(CCC)C(=O)OCO[P@](=O)(OC[C@H]1O[C@@](C#N)(c2ccc3c(N)ncnn23)[C@H](O)[C@@H]1O)Oc1ccc(C[C@H](NC(=O)OCc2ccccc2)C(=O)OC2CCCC2)cc1 [Compound 226] |  |  | > 0.5 µM | > 0.5 µM | > 0.5 µM | > 0.5 µM |  |  |
| CCCC(CCC)C(=O)OCO[P@@](=O)(OC[C@H]1O[C@@](C#N)(c2ccc3c(N)ncnn23)[C@H](O)[C@@H]1O)Oc1ccc(C[C@H](NC(=O)OCc2ccccc2)C(=O)OC2CCCC2)cc1 [Compound 227] |  |  | > 0.5 µM | > 0.5 µM | > 0.5 µM | > 0.5 µM |  |  |
